Results reported in ChEMBL document CHEMBL3885881, “DrugMatrix”.

Organism: Rattus norvegicus
Experiment: DrugMatrix - Regimen: Daily Repeat
Type: toxicity, organism-based, Sprague-Dawley
Set-up: regimen Daily Repeat, gender Male, age 6-8 weeks
Conditions: in vivo, po, route oral GAVAGE, vehicle 100 % WATER; for ABSOLUTE BASOPHIL / ABSOLUTE EOSINOPHIL / ABSOLUTE LYMPHOCYTE / ABSOLUTE MONOCYTE / ABSOLUTE SEGMENTED NEUTROPHIL / BASOPHIL / EOSINOPHIL / ERYTHROCYTE COUNT / HEMATOCRIT / HEMOGLOBIN / LEUKOCYTE COUNT / LYMPHOCYTE / MEAN CORPUSCULAR HEMOGLOBIN / MEAN CORPUSCULAR HEMOGLOBIN CONCENTRATION / MEAN CORPUSCULAR VOLUME / MONOCYTE / NEUTROPHIL / NUCLEATED RED BLOOD CELLS / PLATELET COUNT: tissue Blood; for ALANINE AMINOTRANSFERASE / ALBUMIN / ALKALINE PHOSPHATASE / ASPARTATE AMINOTRANSFERASE / BLOOD UREA NITROGEN / CARBON DIOXIDE / CHLORIDE / CHOLESTEROL / CREATINE PHOSPHOKINASE / CREATININE / GLUCOSE / LACTATE DEHYDROGENASE / LIPASE / PHOSPHORUS / POTASSIUM / SODIUM / TOTAL BILIRUBIN / TOTAL PROTEIN / URIC ACID: tissue Plasma
[1] = 4 mg/kg, 72 h, dose level Low, time 3 day
[2] = 4 mg/kg, 120 h, dose level Low, time 5 day
[3] = 1100 mg/kg, 72 h, dose level High, time 3 day
[4] = 1100 mg/kg, 120 h, dose level High, time 5 day

COc1ccnc(C[S+]([O-])c2nc3ccc(OC(F)F)cc3[nH]2)c1OC (configuration not stated) [PANTOPRAZOLE]
ABSOLUTE BASOPHIL [1]: 0 CELLS/uL
ABSOLUTE EOSINOPHIL [1]: 0 CELLS/uL
ABSOLUTE LYMPHOCYTE [1]: 12700.33 CELLS/uL
ABSOLUTE MONOCYTE [1]: 129 CELLS/uL
ABSOLUTE SEGMENTED NEUTROPHIL [1]: 970.67 CELLS/uL
BASOPHIL [1]: 0%
EOSINOPHIL [1]: 0%
ERYTHROCYTE COUNT [1]: 5.41 x10E6/uL
HEMATOCRIT [1]: 34.33%
HEMOGLOBIN [1]: 13.7 G/DL
LEUKOCYTE COUNT [1]: 13.8 x10E3/uL
LYMPHOCYTE [1]: 91.33%
MEAN CORPUSCULAR HEMOGLOBIN [1]: 25.37 pg
MEAN CORPUSCULAR HEMOGLOBIN CONCENTRATION [1]: 39.93 G/DL
MEAN CORPUSCULAR VOLUME [1]: 63.43 fL
MONOCYTE [1]: 1%
NEUTROPHIL [1]: 7.67%
NUCLEATED RED BLOOD CELLS [1]: 0.67 /100WBC
PLATELET COUNT [1]: 1322.33 x10E3/uL
ALANINE AMINOTRANSFERASE [1]: 47 u/L
ALBUMIN [1]: 4.07 G/DL
ALKALINE PHOSPHATASE [1]: 370.67 u/L
ASPARTATE AMINOTRANSFERASE [1]: 94 u/L
BLOOD UREA NITROGEN [1]: 15.67 mg/dL
CARBON DIOXIDE [1]: 25.67 mmol/L
CHLORIDE [1]: 102.67 MEQ/L
CHOLESTEROL [1]: 70.33 mg/dL
CREATINE PHOSPHOKINASE [1]: 679.33 u/L
CREATININE [1]: 0.14 mg/dL
GLUCOSE [1]: 153.67 mg/dL
LACTATE DEHYDROGENASE [1]: 404.33 u/L
LIPASE [1]: 9 u/L
PHOSPHORUS [1]: 13.8 mg/dL
POTASSIUM [1]: 7.04 MEQ/L
SODIUM [1]: 146.43 MEQ/L
TOTAL BILIRUBIN [1]: 0.23 mg/dL
TOTAL PROTEIN [1]: 5.67 G/DL
URIC ACID [1]: 1.7 mg/dL
ABSOLUTE BASOPHIL [2]: 0 CELLS/uL
ABSOLUTE EOSINOPHIL [2]: 43.33 CELLS/uL
ABSOLUTE LYMPHOCYTE [2]: 13938.33 CELLS/uL
ABSOLUTE MONOCYTE [2]: 59 CELLS/uL
ABSOLUTE SEGMENTED NEUTROPHIL [2]: 859.33 CELLS/uL
BASOPHIL [2]: 0%
EOSINOPHIL [2]: 0.33%
ERYTHROCYTE COUNT [2]: 5.27 x10E6/uL
HEMATOCRIT [2]: 34.2%
HEMOGLOBIN [2]: 13.7 G/DL
LEUKOCYTE COUNT [2]: 14.9 x10E3/uL
LYMPHOCYTE [2]: 93.33%
MEAN CORPUSCULAR HEMOGLOBIN [2]: 26.07 pg
MEAN CORPUSCULAR HEMOGLOBIN CONCENTRATION [2]: 40.07 G/DL
MEAN CORPUSCULAR VOLUME [2]: 65.03 fL
MONOCYTE [2]: 0.33%
NEUTROPHIL [2]: 6%
NUCLEATED RED BLOOD CELLS [2]: 0.33 /100WBC
PLATELET COUNT [2]: 1411.33 x10E3/uL
ALANINE AMINOTRANSFERASE [2]: 54.67 u/L
ALBUMIN [2]: 4.17 G/DL
ALKALINE PHOSPHATASE [2]: 396 u/L
ASPARTATE AMINOTRANSFERASE [2]: 114.33 u/L
BLOOD UREA NITROGEN [2]: 17.67 mg/dL
CARBON DIOXIDE [2]: 26 mmol/L
CHLORIDE [2]: 102 MEQ/L
CHOLESTEROL [2]: 60.67 mg/dL
CREATINE PHOSPHOKINASE [2]: 690.67 u/L
CREATININE [2]: 0.13 mg/dL
GLUCOSE [2]: 144 mg/dL
LACTATE DEHYDROGENASE [2]: 666.67 u/L
LIPASE [2]: 9 u/L
PHOSPHORUS [2]: 14.27 mg/dL
POTASSIUM [2]: 6.77 MEQ/L
SODIUM [2]: 143.77 MEQ/L
TOTAL BILIRUBIN [2]: 0.2 mg/dL
TOTAL PROTEIN [2]: 5.8 G/DL
URIC ACID [2]: 1.57 mg/dL
ABSOLUTE BASOPHIL [3]: 0 CELLS/uL
ABSOLUTE EOSINOPHIL [3]: 0 CELLS/uL
ABSOLUTE LYMPHOCYTE [3]: 16363.67 CELLS/uL
ABSOLUTE MONOCYTE [3]: 197 CELLS/uL
ABSOLUTE SEGMENTED NEUTROPHIL [3]: 1639.33 CELLS/uL
BASOPHIL [3]: 0%
EOSINOPHIL [3]: 0%
ERYTHROCYTE COUNT [3]: 5.69 x10E6/uL
HEMATOCRIT [3]: 35.37%
HEMOGLOBIN [3]: 14 G/DL
LEUKOCYTE COUNT [3]: 18.2 x10E3/uL
LYMPHOCYTE [3]: 90.33%
MEAN CORPUSCULAR HEMOGLOBIN [3]: 24.67 pg
MEAN CORPUSCULAR HEMOGLOBIN CONCENTRATION [3]: 39.57 G/DL
MEAN CORPUSCULAR VOLUME [3]: 62.3 fL
MONOCYTE [3]: 1%
NEUTROPHIL [3]: 8.67%
NUCLEATED RED BLOOD CELLS [3]: 0.33 /100WBC
PLATELET COUNT [3]: 1283.67 x10E3/uL
ALANINE AMINOTRANSFERASE [3]: 51.67 u/L
ALBUMIN [3]: 4.03 G/DL
ALKALINE PHOSPHATASE [3]: 372.67 u/L
ASPARTATE AMINOTRANSFERASE [3]: 89 u/L
BLOOD UREA NITROGEN [3]: 17 mg/dL
CARBON DIOXIDE [3]: 29 mmol/L
CHLORIDE [3]: 98.67 MEQ/L
CHOLESTEROL [3]: 105.67 mg/dL
CREATINE PHOSPHOKINASE [3]: 255 u/L
CREATININE [3]: 0.16 mg/dL
GLUCOSE [3]: 134.33 mg/dL
LACTATE DEHYDROGENASE [3]: 182.67 u/L
LIPASE [3]: 11 u/L
PHOSPHORUS [3]: 12.2 mg/dL
POTASSIUM [3]: 7.39 MEQ/L
SODIUM [3]: 142.4 MEQ/L
TOTAL BILIRUBIN [3]: 0.23 mg/dL
TOTAL PROTEIN [3]: 5.67 G/DL
URIC ACID [3]: 1.67 mg/dL
ABSOLUTE BASOPHIL [4]: 0 CELLS/uL
ABSOLUTE EOSINOPHIL [4]: 57.33 CELLS/uL
ABSOLUTE LYMPHOCYTE [4]: 9481.67 CELLS/uL
ABSOLUTE MONOCYTE [4]: 24 CELLS/uL
ABSOLUTE SEGMENTED NEUTROPHIL [4]: 670.33 CELLS/uL
BASOPHIL [4]: 0%
EOSINOPHIL [4]: 0.33%
ERYTHROCYTE COUNT [4]: 5.57 x10E6/uL
HEMATOCRIT [4]: 33.33%
HEMOGLOBIN [4]: 13.7 G/DL
LEUKOCYTE COUNT [4]: 10.23 x10E3/uL
LYMPHOCYTE [4]: 91.67%
MEAN CORPUSCULAR HEMOGLOBIN [4]: 24.57 pg
MEAN CORPUSCULAR HEMOGLOBIN CONCENTRATION [4]: 41.13 G/DL
MEAN CORPUSCULAR VOLUME [4]: 59.83 fL
MONOCYTE [4]: 0.33%
NEUTROPHIL [4]: 7.67%
NUCLEATED RED BLOOD CELLS [4]: 0 /100WBC
PLATELET COUNT [4]: 1302.33 x10E3/uL
ALANINE AMINOTRANSFERASE [4]: 40.33 u/L
ALBUMIN [4]: 4.33 G/DL
ALKALINE PHOSPHATASE [4]: 318 u/L
ASPARTATE AMINOTRANSFERASE [4]: 84 u/L
BLOOD UREA NITROGEN [4]: 14.67 mg/dL
CARBON DIOXIDE [4]: 27 mmol/L
CHLORIDE [4]: 102.5 MEQ/L
CHOLESTEROL [4]: 129.33 mg/dL
CREATINE PHOSPHOKINASE [4]: 241.33 u/L
CREATININE [4]: 0.19 mg/dL
GLUCOSE [4]: 122.33 mg/dL
LACTATE DEHYDROGENASE [4]: 148 u/L
LIPASE [4]: 11.67 u/L
PHOSPHORUS [4]: 9.87 mg/dL
POTASSIUM [4]: 5.71 MEQ/L
SODIUM [4]: 145.65 MEQ/L
TOTAL BILIRUBIN [4]: 0.27 mg/dL
TOTAL PROTEIN [4]: 6.13 G/DL
URIC ACID [4]: 0.47 mg/dL
